{"source": "PubChem BioAssay (NCI)", "assay_in_all_cases": "NCI tumour cell line growth inhibition, 48 h", "key": {"[1]": {"tested_on": "NCI/ADR-RES ovarian"}, "[2]": {"tested_on": "BT-549 breast"}, "[3]": {"tested_on": "OVCAR-3 ovarian"}, "[4]": {"tested_on": "HCT-15 colon"}, "[5]": {"tested_on": "SK-MEL-2 melanoma"}, "[6]": {"tested_on": "SK-MEL-28 melanoma"}, "[7]": {"tested_on": "EKVX NSCLC"}, "[8]": {"tested_on": "M14 melanoma"}, "[9]": {"tested_on": "MDA-MB-231 breast"}, "[10]": {"tested_on": "HCC-2998 colon"}, "[11]": {"tested_on": "COLO 205 colon"}, "[12]": {"tested_on": "HL-60(TB) leukemia"}, "[13]": {"tested_on": "HCT-116 colon"}, "[14]": {"tested_on": "SN12C renal"}, "[15]": {"tested_on": "T-47D breast"}, "[16]": {"tested_on": "HOP-62 NSCLC"}, "[17]": {"tested_on": "DU-145 prostate"}, "[18]": {"tested_on": "NCI-H226 lung"}, "[19]": {"tested_on": "OVCAR-5 ovarian"}, "[20]": {"tested_on": "NCI-H23 lung"}, "[21]": {"tested_on": "MOLT-4 leukemia"}, "[22]": {"tested_on": "PC-3 prostate"}, "[23]": {"tested_on": "CCRF-CEM leukemia"}, "[24]": {"tested_on": "SK-OV-3 ovarian"}, "[25]": {"tested_on": "NCI-H522 lung"}, "[26]": {"tested_on": "786-0 renal"}, "[27]": {"tested_on": "UACC-62 melanoma"}, "[28]": {"tested_on": "SW-620 colon"}, "[29]": {"tested_on": "SF-539 CNS"}, "[30]": {"tested_on": "SR leukemia"}, "[31]": {"tested_on": "A549 NSCLC"}, "[32]": {"tested_on": "MDA-N"}, "[33]": {"tested_on": "UACC-257 melanoma"}, "[34]": {"tested_on": "CAKI-1 renal"}, "[35]": {"tested_on": "MDA-MB-435"}, "[36]": {"tested_on": "IGROV1 ovarian"}, "[37]": {"tested_on": "ACHN renal"}, "[38]": {"tested_on": "OVCAR-8 ovarian"}, "[39]": {"tested_on": "LOX IMVI melanoma"}, "[40]": {"tested_on": "RXF 393 renal"}, "[41]": {"tested_on": "UO-31 renal"}, "[42]": {"tested_on": "MALME-3M melanoma"}, "[43]": {"tested_on": "A498 renal"}, "[44]": {"tested_on": "TK-10 renal"}, "[45]": {"tested_on": "U251 CNS"}, "[46]": {"tested_on": "SF-295 CNS"}, "[47]": {"tested_on": "HT29 colon"}, "[48]": {"tested_on": "KM12 colon"}, "[49]": {"tested_on": "SK-MEL-5 melanoma"}, "[50]": {"tested_on": "SNB-75 CNS"}, "[51]": {"tested_on": "RPMI-8226 leukemia"}, "[52]": {"tested_on": "HOP-92 NSCLC"}, "[53]": {"tested_on": "HS 578T breast"}, "[54]": {"tested_on": "NCI-H460 lung"}, "[55]": {"tested_on": "K-562 leukemia"}}, "note": "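Compound exposure: 48 hours, 5 concentrations, 96-well plates. Abbreviation: GI50, concentration required for 50% inhibition of growth. TGI: total growth inhibition.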", "data": [{"smiles": "COc1cccc2c1C(=O)c1c(O)c3c(c(O)c1C2=O)CC(O)(C(=O)CO)CC3OC1CC(N2CCOCC2C#N)C(O)C(C)O1", "note": "(centres undefined)", "values": [{"measurement": "TGI", "setting": "[1]", "value": 0.00357, "unit": "µM"}, {"measurement": "TGI", "setting": "[2]", "value": 0.00113, "unit": "µM"}, {"measurement": "TGI", "setting": "[3]", "value": 3.28, "unit": "µM"}, {"measurement": "TGI", "setting": "[4]", "value": 1.56, "unit": "µM"}, {"measurement": "TGI", "setting": "[5]", "value": "< 0.0001", "unit": "µM"}, {"measurement": "TGI", "setting": "[6]", "value": "< 0.0001", "unit": "µM"}, {"measurement": "TGI", "setting": "[7]", "value": "< 0.0001", "unit": "µM"}, {"measurement": "TGI", "setting": "[8]", "value": "< 0.0001", "unit": "µM"}, {"measurement": "TGI", "setting": "[9]", "value": "< 0.0001", "unit": "µM"}, {"measurement": "TGI", "setting": "[10]", "value": "< 0.0001", "unit": "µM"}, {"measurement": "TGI", "setting": "[11]", "value": "< 0.0001", "unit": "µM"}, {"measurement": "TGI", "setting": "[12]", "value": "< 0.0001", "unit": "µM"}, {"measurement": "TGI", "setting": "[13]", "value": 12.2, "unit": "µM"}, {"measurement": "TGI", "setting": "[14]", "value": 0.00109, "unit": "µM"}, {"measurement": "TGI", "setting": "[15]", "value": "< 0.0001", "unit": "µM"}, {"measurement": "TGI", "setting": "[16]", "value": "< 0.0001", "unit": "µM"}, {"measurement": "TGI", "setting": "[17]", "value": "> 100", "unit": "µM"}, {"measurement": "TGI", "setting": "[18]", "value": "< 0.0001", "unit": "µM"}, {"measurement": "TGI", "setting": "[19]", "value": 19.1, "unit": "µM"}, {"measurement": "TGI", "setting": "[20]", "value": 0.128, "unit": "µM"}, {"measurement": "TGI", "setting": "[21]", "value": "< 0.0001", "unit": "µM"}, {"measurement": "TGI", "setting": "[22]", "value": "< 0.0001", "unit": "µM"}, {"measurement": "TGI", "setting": "[23]", "value": "< 0.0001", "unit": "µM"}, {"measurement": "TGI", "setting": "[24]", "value": 2.4, "unit": "µM"}, {"measurement": "TGI", "setting": "[25]", "value": "< 0.0001", "unit": "µM"}, {"measurement": "TGI", "setting": "[26]", "value": 5.22, "unit": "µM"}, {"measurement": "TGI", "setting": "[27]", "value": "< 0.0001", "unit": "µM"}, {"measurement": "TGI", "setting": "[28]", "value": 0.0569, "unit": "µM"}, {"measurement": "TGI", "setting": "[29]", "value": "< 0.0001", "unit": "µM"}, {"measurement": "TGI", "setting": "[30]", "value": "> 100", "unit": "µM"}, {"measurement": "TGI", "setting": "[31]", "value": "> 100", "unit": "µM"}, {"measurement": "TGI", "setting": "[32]", "value": "< 0.0001", "unit": "µM"}, {"measurement": "TGI", "setting": "[33]", "value": "< 0.0001", "unit": "µM"}, {"measurement": "TGI", "setting": "[34]", "value": 0.00425, "unit": "µM"}, {"measurement": "TGI", "setting": "[35]", "value": "< 0.0001", "unit": "µM"}]}, {"smiles": "Cc1sc2nc(-c3cccc([N+](=O)[O-])c3)c(/C=N/N=C(N)N)n2c1C", "values": [{"measurement": "TGI", "setting": "[36]", "value": 2.59, "unit": "µM"}, {"measurement": "TGI", "setting": "[1]", "value": 45.1, "unit": "µM"}, {"measurement": "TGI", "setting": "[37]", "value": 3.08, "unit": "µM"}, {"measurement": "TGI", "setting": "[38]", "value": 3.23, "unit": "µM"}, {"measurement": "TGI", "setting": "[2]", "value": 2.83, "unit": "µM"}, {"measurement": "TGI", "setting": "[3]", "value": 4.02, "unit": "µM"}, {"measurement": "TGI", "setting": "[4]", "value": 3.03, "unit": "µM"}, {"measurement": "TGI", "setting": "[5]", "value": 3.09, "unit": "µM"}, {"measurement": "TGI", "setting": "[6]", "value": 3.03, "unit": "µM"}, {"measurement": "TGI", "setting": "[7]", "value": 3.06, "unit": "µM"}, {"measurement": "TGI", "setting": "[8]", "value": 2.95, "unit": "µM"}, {"measurement": "TGI", "setting": "[39]", "value": 3.16, "unit": "µM"}, {"measurement": "TGI", "setting": "[10]", "value": 2.61, "unit": "µM"}, {"measurement": "TGI", "setting": "[11]", "value": 3.72, "unit": "µM"}, {"measurement": "TGI", "setting": "[12]", "value": 3.63, "unit": "µM"}, {"measurement": "TGI", "setting": "[40]", "value": 3.22, "unit": "µM"}, {"measurement": "TGI", "setting": "[41]", "value": 3.13, "unit": "µM"}, {"measurement": "TGI", "setting": "[16]", "value": 3.1, "unit": "µM"}, {"measurement": "TGI", "setting": "[42]", "value": 3.71, "unit": "µM"}, {"measurement": "TGI", "setting": "[43]", "value": 2.88, "unit": "µM"}, {"measurement": "TGI", "setting": "[19]", "value": 3.06, "unit": "µM"}, {"measurement": "TGI", "setting": "[44]", "value": 2.84, "unit": "µM"}, {"measurement": "TGI", "setting": "[45]", "value": 3.07, "unit": "µM"}, {"measurement": "TGI", "setting": "[24]", "value": 3.3, "unit": "µM"}, {"measurement": "TGI", "setting": "[25]", "value": 3.17, "unit": "µM"}, {"measurement": "TGI", "setting": "[26]", "value": 3.22, "unit": "µM"}, {"measurement": "TGI", "setting": "[46]", "value": 2.95, "unit": "µM"}, {"measurement": "TGI", "setting": "[47]", "value": 2.98, "unit": "µM"}, {"measurement": "TGI", "setting": "[48]", "value": 3.24, "unit": "µM"}, {"measurement": "TGI", "setting": "[29]", "value": 3.72, "unit": "µM"}, {"measurement": "TGI", "setting": "[49]", "value": 3.03, "unit": "µM"}, {"measurement": "TGI", "setting": "[31]", "value": 3.02, "unit": "µM"}, {"measurement": "TGI", "setting": "[32]", "value": 3.15, "unit": "µM"}, {"measurement": "TGI", "setting": "[33]", "value": 3.06, "unit": "µM"}, {"measurement": "TGI", "setting": "[34]", "value": 3.77, "unit": "µM"}, {"measurement": "TGI", "setting": "[35]", "value": 3.18, "unit": "µM"}]}, {"smiles": "N#Cc1ccccc1CSc1ncnc2nc[nH]c12", "values": [{"measurement": "GI50", "setting": "[1]", "value": 60.4, "unit": "µM"}, {"measurement": "GI50", "setting": "[2]", "value": 56.6, "unit": "µM"}, {"measurement": "GI50", "setting": "[7]", "value": 90.1, "unit": "µM"}, {"measurement": "GI50", "setting": "[9]", "value": 51, "unit": "µM"}, {"measurement": "GI50", "setting": "[50]", "value": 9.8, "unit": "µM"}, {"measurement": "TGI", "setting": "[50]", "value": 67.1, "unit": "µM"}, {"measurement": "GI50", "setting": "[40]", "value": 94.9, "unit": "µM"}, {"measurement": "GI50", "setting": "[51]", "value": 53.1, "unit": "µM"}, {"measurement": "GI50", "setting": "[41]", "value": 47.4, "unit": "µM"}, {"measurement": "GI50", "setting": "[52]", "value": 28.6, "unit": "µM"}, {"measurement": "GI50", "setting": "[21]", "value": 80.3, "unit": "µM"}, {"measurement": "GI50", "setting": "[27]", "value": 77.2, "unit": "µM"}, {"measurement": "GI50", "setting": "[53]", "value": 51.9, "unit": "µM"}, {"measurement": "GI50", "setting": "[54]", "value": 83.3, "unit": "µM"}, {"measurement": "GI50", "setting": "[49]", "value": 74.3, "unit": "µM"}, {"measurement": "GI50", "setting": "[32]", "value": 83.3, "unit": "µM"}, {"measurement": "GI50", "setting": "[33]", "value": 44.5, "unit": "µM"}, {"measurement": "GI50", "setting": "[55]", "value": 67.2, "unit": "µM"}]}]}
